From patent US20250152626A1, “CONSTRUCTION AND APPLICATION OF ENHANCED NEUTROPHIL DRUG” (China Pharmaceutical University, priority 2023, published 2025) come the findings set out here.

The subject of this assay is Human neutrophils. Briefly: Effect of single inducers on neutrophil viability (Example 1). In kind it is cell-based. The settings on record: FIG. 2; for effect on neutrophil lifespan / viability: single inducer 8 h in 1640 medium, inducer removed, culture 24 h, apoptosis by flow cytometry; for concentration with the best effect on neutrophil lifespan: cytokine inducers tested at 0-100 ng/mL. The method, then: Human neutrophils were incubated with different concentrations of single inducers in 1640 medium for 8 h. Different concentrations of single inducers included: • inducer 1 (IFNγ): 0, 10, 20, 30, 50, 100 ng/mL; • inducer 2 (GM-CSF): 0, 10, 20, 30, 50, 100 ng/mL; • inducer 3 (TNFα): 0, 10, 20, 30, 50, 100 ng/mL; • inducer 4 (duvalumab): 0.1, 0.5, 1, 2, 3, 5, 8, 10 μg/mL; • inducer 5 (avelumab): 0.1, 0.5, 1, 2, 3, 5, 8, 10 μg/mL; • inducer 6 (Q-VD-Oph): 1, 10, 20, 50, 60, 80, 100 μM; and • inducer 7 (Nec-1): 1, 10, 20, 50, 60, 80, 100 μM; and • conditions of culture were 37° C. and 5% CO2. The apoptosis of neutrophils was detected by flow cytometry after removing the inducer and continuing culture for 24 h.

Where [1] appears, read: apoptosis inhibitors tested at 1-100 μM.
Setting [2] is: PD-L1 inhibitors tested at 0.1-10 μg/mL.

Consider `CC(C)[C@H](NC(=O)c1ccc2ccccc2n1)C(=O)N[C@@H](CC(=O)O)C(=O)COc1c(F)cccc1F` [inducer 6, Q-VD-Oph], for which the “effect on neutrophil lifespan / viability” value was “increase neutrophil viability”. The “concentration with the best effect on neutrophil viability” value (“concentration … on neutrophil viability” for short) under setting [1] was 50 µM.
Take `CN1C(=O)C(Cc2c[nH]c3ccccc23)NC1=S` (stereo not drawn) [inducer 7, Nec-1]: the “effect on neutrophil lifespan / viability” value is reported as “increase neutrophil viability”. Also, the “concentration … on neutrophil viability” value under setting [1] came out at 50 µM.
For the molecule GM-CSF [inducer 2], the “concentration with the best effect on neutrophil lifespan” value is given as 20 ng/mL and the “effect on neutrophil lifespan / viability” value is “significantly prolong the lifespan of neutrophils”.
With avelumab [inducer 5], the “effect on neutrophil lifespan / viability” value was “increase neutrophil viability”. Moreover, under setting [2], the “concentration … on neutrophil viability” value worked out at 2 µg/mL.
The like results for duvalumab [inducer 4] were, in that order, “increase neutrophil viability” and 2 µg/mL.

B1: IFNγ (protein, UniProt P01579 24-161, looked up)
Interferon gamma: QDPYVKEAENLKKYFNAGHSDVADNGTLFLGILKNWKEESDRKIMQSQIVSFYFKLFKNFKDDQSIQKSVETIKEDMNVKFFNSNKKKRDDFEKLTNYSVTDLNVQRKAIHELIQVMAELSPAAKTGKRKRSQMLFRG
notes: cytokine, single inducer
Turning to B1, the “concentration with the best effect on neutrophil lifespan” value came to 20 ng/mL and the “effect on neutrophil lifespan / viability” value is “significantly prolong the lifespan of neutrophils”.
